Laboratory results published in PubChem BioAssay (NCI).
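Tested at 5 concentrations; 48 h exposure; 96-well plates; endpoints linearly interpolated, else capped at highest concentration. The concentration for 50% growth inhibition is given as GI50. TGI denotes the concentration required for complete inhibition of growth.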

What was measured:
Experiment in all cases: NCI tumour cell line growth inhibition, 48 h
XF 498 CNS = test system: XF 498 CNS
M19-MEL melanoma = test system: M19-MEL melanoma
DMS 273 small cell lung = test system: DMS 273 small cell lung
KM20L2 colon = test system: KM20L2 colon
DMS 114 small cell lung = test system: DMS 114 small cell lung
LXFL 529 NSCLC = test system: LXFL 529 NSCLC
DLD-1 colon = test system: DLD-1 colon
BT-549 breast = test system: BT-549 breast
NCI/ADR-RES ovarian = test system: NCI/ADR-RES ovarian
DU-145 prostate = test system: DU-145 prostate

Structure (SMILES)	TGI (XF 498 CNS) [µM]	TGI (M19-MEL melanoma) [µM]	TGI (DMS 273 small cell lung) [µM]	TGI (KM20L2 colon) [µM]	TGI (DMS 114 small cell lung) [µM]	TGI (LXFL 529 NSCLC) [µM]	TGI (DLD-1 colon) [µM]	GI50 (BT-549 breast) [µM]	TGI (BT-549 breast) [µM]	GI50 (NCI/ADR-RES ovarian) [µM]	TGI (NCI/ADR-RES ovarian) [µM]	GI50 (XF 498 CNS) [µM]	GI50 (DU-145 prostate) [µM]	TGI (DU-145 prostate) [µM]	GI50 (M19-MEL melanoma) [µM]	GI50 (DMS 273 small cell lung) [µM]	GI50 (KM20L2 colon) [µM]	GI50 (DLD-1 colon) [µM]	GI50 (LXFL 529 NSCLC) [µM]
Cc1cc2c(cc1C)[n+](=O)c(C(=O)CC(=O)C(=O)Nc1ccccc1C(C)C)c(C)n2[O-]	> 100	> 100	> 100	> 100	> 100	> 100													
O=C(O)CCC1CCc2cccc(OCC(=O)O)c2C1=O (stereo not given)	> 100	> 100	> 100	> 100	> 100	> 100	> 100												
O=C(Cc1ccccc1)NN1C(=O)C(Cl)C1c1cccc([N+](=O)[O-])c1 (stereo not given)	> 57.1	> 37.1	> 100	> 100	> 93.4	49.7	> 100												
CCC1c2cc3n(c(=O)c2COC1O)Cc1c-3nc2ccccc2c1Cl (stereo not given)	> 100	> 100	> 100	> 100	> 100	> 100	> 100												
NC(=S)N/N=C(\CCC(=O)Nc1ccccc1[N+](=O)[O-])CC(=O)c1ccco1	> 100	> 100	> 100	> 100	> 100	> 100	> 100												
Cc1ccc(NC(=O)/C(=N\NC(N)=S)C(C#N)c2ccccc2C)cc1C (stereo not given)	> 100	> 100	> 100	> 100	> 100	> 100	> 100												
O=C(N/C=C/C=C/Sc1ccccc1)OCc1ccccc1	43.9	31.5	31.4	31	32.3	32.5	29												
N#CC(/C(=N/NC(N)=S)C(=O)Nc1cccc(Cl)c1)c1ccccc1 (stereo not given)	> 100	> 100	> 100	> 100	> 100	> 100	> 100												
O=c1nc(N2CCCC2)nc(N2CCCC2)s1	> 100	> 100	> 100	> 100	> 100	> 100	> 100												
O=C(O)c1ccc(C(=O)O)c(C(=O)O)c1.[NH-]C1CCCCC1[NH-].[Pt+2]	16.5	46	9.31	27.7		> 100	> 87.4	23.8	54.2	3.56	60.5	1.8	11.1	84.1	1.41	0.417	0.768	5.25	5.94
CC(=O)OCC1OC([Se-])C(OC(C)=O)C(OC(C)=O)C1OC(C)=O.N#CCC[PH+](CCC#N)CCC#N.[Au+] (stereo not given)	34.6	> 27.9	49.7	41.1		37.3	> 63.6					8.09			3.11	4.09	7	7.78	3.5
CCCCN(CCCC)CC(C(=O)Nc1ccc([N+](=O)[O-])cc1[N+](=O)[O-])/C(C)=N\NC(=O)C[N+](C)(C)C (stereo not given)	> 100	> 100	31.2	> 100	> 100	> 100	> 100												
COC(=O)c1nc(C(=O)OC)c2c([nH]c3ccccc32)c1C(=O)OC	> 100		> 100		> 100	> 100	> 100												
OCCCc1cnco1	> 100	> 100	> 100	> 100		> 100	> 100												
CC(=O)N(CCN1C(=O)c2ccccc2C1=O)CCN1C(=O)c2ccccc2C1=O	> 100	> 100	> 100	> 100	> 100	> 100	> 100												
NC1=NC2=C(CCCC2)C(c2cccs2)S1 (stereo not given)	> 100	> 100	> 100	> 100	> 100	> 100													
CC(=O)CC(=O)NC=O	> 100	> 100	> 100	> 100	> 100	> 100	> 100												
CN(C)c1ccc(/C=c2\sc3nnc(-c4cccnc4)n3c2=O)cc1	> 100	> 100	> 100	> 100	> 100	> 100	> 100												
CCOC(=O)/C(=C/c1ccccc1Br)P(=O)(OCC)OCC	3.56	3.68	3.04	5.67		2.92	4.85												
CC(C)(CN1CCCCC1)C(=O)CC(SCCN)c1ccc(Cl)cc1 (stereo not given)	4.1	7.39	4.96	5.43	3.43	3.33	3.35												
CC(=O)Oc1c(Br)ccc2cc(C(Br)Br)c(C(=O)c3ccccc3)nc12	36.1	44.1	42.3	42.2	49.6	52.3	51.5												
C=C1c2[nH]c3ccccc3c2CC(C(=O)O)N1C(O)c1ccc(S(=O)(=O)O)cc1 (stereo not given)	> 100	> 100	> 100		> 100	> 100	> 100												
Fc1ccc(C2SCc3nc4ccccc4n32)cc1F (stereo not given)	> 100	> 100	97.9	> 100	77.8	> 100	> 100												
